MIC90 data for 19 molecules are collected here from ChEMBL document CHEMBL1817642, “Stereoselective synthesis and antimicrobial activity of steroidal C-20 tertiary alcohols with thiazole/pyridine side chain” (2011).

≈ marks a conversion by molar mass, not a printed value.

Common to all, as to format: functional
For one assay, the system named is Fusarium oxysporum. The assay is described as follows: Antifungal activity against Fusarium oxysporum isolate NCL5 after 48 hrs by broth dilution method. As to conditions: isolate NCL5, 48 h. On the technique in general: Broth dilution looks for growth in wells or tubes with falling amounts of substance.
A further assay has as its system Cryptococcus neoformans. Description: Antifungal activity against Cryptococcus neoformans isolate NCL2 after 72 hrs by broth dilution method. As to conditions: isolate NCL2, 72 h.
The subject of the next assay is Candida albicans. The assay is described as follows: Antifungal activity against Candida albicans isolate NCL1 after 48 hrs by broth dilution method. The note with it: isolate NCL1, 48 h.
Another assay deals with Staphylococcus aureus. Description: Antibacterial activity against Staphylococcus aureus NCIM 2122 after 24 hrs by NCCLS method. The note with it: NCIM 2122, 24 h.
The next assay has as its system Escherichia coli. Description: Antibacterial activity against Escherichia coli NCIM 2574 after 24 hrs by NCCLS method. The note with it: NCIM 2574, 24 h.
The test system of the next assay is Yarrowia lipolytica. The assay is described as follows: Antifungal activity against Yarrowia lipolytica isolate NCL4 after 24 hrs by broth dilution method. As to conditions: isolate NCL4, 24 h.
Another assay concerns Benjaminiella poitrasii. The assay is described as follows: Antifungal activity against Benjaminiella poitrasii isolate NCL3 after 24 hrs by M38-P broth dilution method. As to conditions: isolate NCL3, 24 h.

The MIC90 is the lowest concentration that inhibits either 90% of growth or 90% of the strains tested, depending on the study. Low readings indicate higher susceptibility, high ones lower susceptibility.

In the case of `C[C@]12CC[C@H](O)C[C@@H]1CC[C@@H]1[C@@H]2CC[C@@]2(C)[C@H]1CC[C@@H]2[C@@](C)(O)c1ccccn1`, the MIC90 in the assay with Fusarium oxysporum was more than 64 µg/mL; against Cryptococcus neoformans it was 64 µg/mL (≈ 161 µM); against Candida albicans, 32 µg/mL (≈ 80.5 µM); in the assay on Staphylococcus aureus, 8 µg/mL (≈ 20.1 µM); in the assay with Escherichia coli it was 8 µg/mL (≈ 20.1 µM); against Yarrowia lipolytica, 32 µg/mL (≈ 80.5 µM). Moreover, the MIC90 against Benjaminiella poitrasii was found to be 64 µg/mL (≈ 161 µM).

Regarding `CC(C)(C)[Si](C)(C)O[C@H]1CC[C@@]2(C)C(=CC[C@H]3[C@@H]4CC[C@H]([C@@](C)(O)c5nccs5)[C@@]4(C)CC[C@@H]32)C1`, the MIC90 was more than 64 µg/mL with Fusarium oxysporum; more than 64 µg/mL against Cryptococcus neoformans; 16 µg/mL (≈ 31 µM) with Candida albicans; 16 µg/mL (≈ 31 µM) against Staphylococcus aureus; 8 µg/mL (≈ 15.5 µM) against Escherichia coli; more than 64 µg/mL in the assay with Yarrowia lipolytica. In addition, the MIC90 in the assay on Benjaminiella poitrasii is more than 64 µg/mL.

As to `C[C@]12CC[C@H]3[C@@H](CC=C4C[C@@H](O)CC[C@@]43C)[C@@H]1CC[C@@H]2[C@@](C)(O)c1nccs1`, the MIC90 came out at 64 µg/mL (≈ 159 µM) with Fusarium oxysporum; 32 µg/mL (≈ 79.7 µM) against Cryptococcus neoformans; 16 µg/mL (≈ 39.8 µM) in the assay with Candida albicans; 8 µg/mL (≈ 19.9 µM) in the assay with Staphylococcus aureus; 8 µg/mL (≈ 19.9 µM) against Escherichia coli; 32 µg/mL (≈ 79.7 µM) against Yarrowia lipolytica. In the assay with Benjaminiella poitrasii, this molecule gave an MIC90 of 32 µg/mL (≈ 79.7 µM).

For `CC(=O)O[C@H]1CC[C@@]2(C)C(=CC[C@H]3[C@@H]4CC[C@H]([C@@](C)(O)c5nccs5)[C@@]4(C)CC[C@@H]32)C1`, the MIC90 against Fusarium oxysporum was 64 µg/mL (≈ 144 µM); in the assay on Cryptococcus neoformans it was 32 µg/mL (≈ 72.1 µM); against Candida albicans, more than 64 µg/mL; in the assay on Staphylococcus aureus it was 32 µg/mL (≈ 72.1 µM); in the assay with Escherichia coli it was 8 µg/mL (≈ 18 µM); in the assay with Yarrowia lipolytica it was more than 64 µg/mL. In addition, in the assay with Benjaminiella poitrasii, the MIC90 turned out to be 32 µg/mL (≈ 72.1 µM).

In the case of `CC(C)(C)[Si](C)(C)O[C@H]1CC[C@@]2(C)[C@@H](CC[C@@H]3[C@@H]2CC[C@@]2(C)[C@H]3CC[C@@H]2[C@@](C)(O)c2nccs2)C1`, the MIC90 is 64 µg/mL (≈ 124 µM) in the assay with Fusarium oxysporum; more than 64 µg/mL with Cryptococcus neoformans; more than 64 µg/mL against Candida albicans; 16 µg/mL (≈ 30.9 µM) against Staphylococcus aureus; 16 µg/mL (≈ 30.9 µM) against Escherichia coli; 64 µg/mL (≈ 124 µM) with Yarrowia lipolytica. This molecule gave an MIC90 with Benjaminiella poitrasii of 32 µg/mL (≈ 61.8 µM).

For the molecule `C[C@]12CC[C@H](O)C[C@@H]1CC[C@@H]1[C@@H]2CC[C@@]2(C)[C@H]1CC[C@@H]2[C@@](C)(O)c1nccs1`, the MIC90 in the assay on Fusarium oxysporum is more than 64 µg/mL; against Cryptococcus neoformans, 32 µg/mL (≈ 79.3 µM); against Candida albicans, 64 µg/mL (≈ 159 µM); in the assay on Staphylococcus aureus, 32 µg/mL (≈ 79.3 µM); in the assay on Escherichia coli, 16 µg/mL (≈ 39.6 µM); in the assay on Yarrowia lipolytica, more than 64 µg/mL. The molecule also returned an MIC90 in the assay on Benjaminiella poitrasii of more than 64 µg/mL.

With `CC(=O)O[C@H]1CC[C@@]2(C)[C@@H](CC[C@@H]3[C@@H]2CC[C@@]2(C)[C@H]3CC[C@@H]2[C@@](C)(O)c2nccs2)C1`, the MIC90 against Fusarium oxysporum is 16 µg/mL (≈ 35.9 µM); against Cryptococcus neoformans, 64 µg/mL (≈ 144 µM); against Candida albicans, 8 µg/mL (≈ 18 µM); in the assay with Staphylococcus aureus, 16 µg/mL (≈ 35.9 µM); against Escherichia coli, 16 µg/mL (≈ 35.9 µM); against Yarrowia lipolytica, more than 64 µg/mL. This molecule also showed an MIC90 against Benjaminiella poitrasii of 16 µg/mL (≈ 35.9 µM).

As to `CC(C)(C)[Si](C)(C)O[C@H]1CC[C@@]2(C)C(=CC[C@H]3[C@@H]4CC[C@H]([C@@](C)(O)c5ccccn5)[C@@]4(C)CC[C@@H]32)C1`, the MIC90 with Fusarium oxysporum is 8 µg/mL (≈ 15.7 µM); against Cryptococcus neoformans, 32 µg/mL (≈ 62.8 µM); against Candida albicans it was 16 µg/mL (≈ 31.4 µM); against Staphylococcus aureus, 8 µg/mL (≈ 15.7 µM); with Escherichia coli it was 16 µg/mL (≈ 31.4 µM); against Yarrowia lipolytica, 8 µg/mL (≈ 15.7 µM). Also, the MIC90 in the assay with Benjaminiella poitrasii was found to be 16 µg/mL (≈ 31.4 µM).

As for `C[C@]12CC[C@H]3[C@@H](CC=C4C[C@@H](O)CC[C@@]43C)[C@@H]1CC[C@@H]2[C@@](C)(O)c1ccccn1`, the MIC90 with Fusarium oxysporum is 16 µg/mL (≈ 40.4 µM); against Cryptococcus neoformans, 64 µg/mL (≈ 162 µM); with Candida albicans, more than 64 µg/mL; with Staphylococcus aureus, 8 µg/mL (≈ 20.2 µM); with Escherichia coli it was 16 µg/mL (≈ 40.4 µM); against Yarrowia lipolytica, 32 µg/mL (≈ 80.9 µM). This molecule also had an MIC90 in the assay with Benjaminiella poitrasii of 32 µg/mL (≈ 80.9 µM).

With `CC(=O)O[C@H]1CC[C@@]2(C)C(=CC[C@H]3[C@@H]4CC[C@H]([C@@](C)(O)c5ccccn5)[C@@]4(C)CC[C@@H]32)C1`, the MIC90 against Fusarium oxysporum was 64 µg/mL (≈ 146 µM); against Cryptococcus neoformans, more than 64 µg/mL; in the assay with Candida albicans, more than 64 µg/mL; against Staphylococcus aureus, 32 µg/mL (≈ 73.1 µM); in the assay with Escherichia coli, 8 µg/mL (≈ 18.3 µM); against Yarrowia lipolytica it was 16 µg/mL (≈ 36.6 µM). In the assay with Benjaminiella poitrasii, this molecule registered an MIC90 of 32 µg/mL (≈ 73.1 µM).

As for `CC(C)(C)[Si](C)(C)O[C@H]1CC[C@@]2(C)[C@@H](CC[C@@H]3[C@@H]2CC[C@@]2(C)[C@H]3CC[C@@H]2[C@@](C)(O)c2ccccn2)C1`, the MIC90 in the assay with Fusarium oxysporum is 32 µg/mL (≈ 62.5 µM); against Cryptococcus neoformans, 16 µg/mL (≈ 31.3 µM); in the assay on Candida albicans it was 32 µg/mL (≈ 62.5 µM); with Staphylococcus aureus, 16 µg/mL (≈ 31.3 µM); in the assay with Escherichia coli it was 8 µg/mL (≈ 15.6 µM); with Yarrowia lipolytica, more than 64 µg/mL. For the same molecule, in the assay on Benjaminiella poitrasii, the MIC90 amounted to 64 µg/mL (≈ 125 µM).

On to `CC(=O)O[C@H]1CC[C@@]2(C)[C@@H](CC[C@@H]3[C@@H]2CC[C@@]2(C)[C@H]3CC[C@@H]2[C@@](C)(O)c2ccccn2)C1`, for which the MIC90 in the assay on Fusarium oxysporum was more than 64 µg/mL; in the assay on Cryptococcus neoformans, 64 µg/mL (≈ 146 µM); with Candida albicans, 16 µg/mL (≈ 36.4 µM); in the assay on Staphylococcus aureus it was 16 µg/mL (≈ 36.4 µM); with Escherichia coli, 8 µg/mL (≈ 18.2 µM); with Yarrowia lipolytica it was 64 µg/mL (≈ 146 µM). Besides, the MIC90 in the assay with Benjaminiella poitrasii is 16 µg/mL (≈ 36.4 µM).

For the molecule `CC(=O)[C@H]1[C@H](c2ccccn2)C[C@H]2[C@@H]3CC=C4C[C@@H](OS(C)(C)C(C)(C)C)CC[C@]4(C)[C@H]3CC[C@@]21C`, the MIC90 is 64 µg/mL (≈ 125 µM) against Fusarium oxysporum; more than 64 µg/mL against Cryptococcus neoformans; 32 µg/mL (≈ 62.5 µM) against Candida albicans; 16 µg/mL (≈ 31.3 µM) with Staphylococcus aureus; 16 µg/mL (≈ 31.3 µM) in the assay on Escherichia coli; 8 µg/mL (≈ 15.6 µM) against Yarrowia lipolytica. In the assay on Benjaminiella poitrasii, the MIC90 came out at 64 µg/mL (≈ 125 µM).

For `CC(=O)[C@H]1[C@H](c2ccccn2)C[C@H]2[C@@H]3CC=C4C[C@@H](O)CC[C@]4(C)[C@H]3CC[C@@]21C`, the MIC90 against Fusarium oxysporum is 64 µg/mL (≈ 163 µM); in the assay with Cryptococcus neoformans it was more than 64 µg/mL; in the assay with Candida albicans, 32 µg/mL (≈ 81.3 µM); in the assay with Staphylococcus aureus, 8 µg/mL (≈ 20.3 µM); against Escherichia coli, 16 µg/mL (≈ 40.7 µM); with Yarrowia lipolytica, 16 µg/mL (≈ 40.7 µM). The molecule further had an MIC90 with Benjaminiella poitrasii of 32 µg/mL (≈ 81.3 µM).

On to `CC(=O)O[C@H]1CC[C@@]2(C)C(=CC[C@H]3[C@@H]4C[C@@H](c5ccccn5)[C@H](C(C)=O)[C@@]4(C)CC[C@@H]32)C1`, for which the MIC90 against Fusarium oxysporum is 32 µg/mL (≈ 73.5 µM); against Cryptococcus neoformans, 32 µg/mL (≈ 73.5 µM); in the assay with Candida albicans it was more than 64 µg/mL; with Staphylococcus aureus, 16 µg/mL (≈ 36.7 µM); with Escherichia coli, 16 µg/mL (≈ 36.7 µM); with Yarrowia lipolytica it was more than 64 µg/mL. The MIC90 against Benjaminiella poitrasii is 64 µg/mL (≈ 147 µM).

Take `C[C@@H]1[C@H](O)[C@@H](C)/C=C/C=C/C=C/C=C/C=C/C=C/C=C/[C@H](O[C@@H]2O[C@H](C)[C@@H](O)[C@H](N)[C@@H]2O)C[C@@H]2O[C@](O)(C[C@@H](O)C[C@@H](O)[C@H](O)CC[C@@H](O)C[C@@H](O)CC(=O)O[C@H]1C)C[C@H](O)[C@H]2C(=O)O` [AMPHOTERICIN B]: the MIC90 stood at 16 µg/mL (≈ 17.3 µM) against Fusarium oxysporum; 16 µg/mL (≈ 17.3 µM) with Cryptococcus neoformans; 2 µg/mL (≈ 2.16 µM) against Candida albicans; 16 µg/mL (≈ 17.3 µM) against Yarrowia lipolytica; 16 µg/mL (≈ 17.3 µM) against Benjaminiella poitrasii.

Regarding `CC[C@H]1OC(=O)[C@H](C)[C@@H](O[C@H]2C[C@@](C)(OC)[C@@H](O)[C@H](C)O2)[C@H](C)[C@@H](O[C@@H]2O[C@H](C)C[C@H](N(C)C)[C@H]2O)[C@](C)(O)C[C@@H](C)C(=O)[C@H](C)[C@@H](O)[C@]1(C)O` [ERYTHROMYCIN], the results for the MIC90 with Staphylococcus aureus and against Escherichia coli were 32 µg/mL (≈ 43.6 µM) and more than 64 µg/mL, respectively.

For `OC(Cn1cncn1)(Cn1cncn1)c1ccc(F)cc1F` [FLUCONAZOLE], the MIC90 came to 8 µg/mL (≈ 26.1 µM) in the assay with Fusarium oxysporum; 32 µg/mL (≈ 104 µM) in the assay with Cryptococcus neoformans; 32 µg/mL (≈ 104 µM) in the assay on Candida albicans; 64 µg/mL (≈ 209 µM) against Yarrowia lipolytica; 32 µg/mL (≈ 104 µM) in the assay on Benjaminiella poitrasii.

For `CN(C)[C@@H]1C(O)=C(C(N)=O)C(=O)[C@@]2(O)C(O)=C3C(=O)c4c(O)cccc4[C@@](C)(O)[C@H]3C[C@@H]12` [TETRACYCLINE], the MIC90 in the assay with Staphylococcus aureus was 16 µg/mL (≈ 36 µM); in the assay on Escherichia coli, 8 µg/mL (≈ 18 µM).
